Assay: gradient 5% acetonitrile 3 min, to 50% in 2 min, to 85% in 15 min, held 3 min, 100 µL/min
Conditions: column: Zorbax Extend-C18 2.1 x 50 mm; eluents: water / acetonitrile, 0.1% formic acid
How it was run: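 Retention time was recorded from adduct peaks, which were picked computationally and each inspected manually. Pure standards ran in mixtures of ~100 molecules on HPLC coupled to a quadrupole time-of-flight mass spectrometer, in positive and negative ionization mode, through a Zorbax Extend-C18 column (2.1 × 50 mm, 1.8 μm) at 100 μL/min. Eluents were water and acetonitrile, each with 0.1% formic acid.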

Row | Compound | RP-LC retention time
1 | Cc1ccc(C)c(NC(=O)Cn2c(N)nc(C)c(C)c2=O)c1 | 631 s
2 | COc1ccc(-c2csc(NC(=O)Cc3csc(C)n3)n2)cc1 | 828 s
3 | O=C(Cc1cccs1)N1CCCC1c1nc(-c2cccc(Cl)c2)no1 (centres undefined) | 1050 s
4 | N#Cc1cccc(-c2cn3c(n2)N(C(=O)c2ccncc2)CCC3)c1 | 611 s
5 | COc1ccc(-c2cn3ccn(-c4cc(C)cc(C)c4)c(=O)c3n2)cc1 | 874 s
6 | Cc1ccc(Nc2nc(C(=O)NCc3ccco3)nc3ccccc23)cc1 | 779 s
7 | CCOC(=O)c1nc(NCCc2ccc(C)cc2)c2c(CC)noc2n1 | 1080 s
8 | O=C(CCc1nc(C2=CCN(Cc3ccc(Cl)cc3)CC2)no1)NC1CC1 | 890 s
9 | Cc1ccsc1C(=O)Nc1ccc(-c2nc(-c3ccccc3)co2)cc1 | 1160 s
10 | O=C(Nc1cccc(Cl)c1)N1CCC(n2cnnc2C2CC2)C1 (centres undefined) | 658 s
11 | Cc1noc(C)c1CCC(=O)N(C)C1CCc2nn(CC3CC3)c(=O)n2CC1 (centres undefined) | 644 s
12 | COc1ccc(C(=O)NC2CCN(c3cc(-c4ccc(Cl)cc4)[nH]n3)C2)cn1 (centres undefined) | 732 s
13 | Cc1cc(Cl)ccc1NS(=O)(=O)c1cc(-c2[nH]ncc2C(=O)N(C)C)oc1C | 730 s
14 | CCOc1ccccc1C(=O)Nc1c(-c2ccccc2)nc2ccccn12 | 685 s
15 | Cc1oc(C(C)C)nc1C(=O)Nc1ccc(Cl)cc1 | 1150 s
16 | Cc1oc(C(C)C)nc1C(=O)NCc1cccs1 | 897 s
17 | COc1nccnc1N1CCC(NC(=O)c2ccsc2)C1 (centres undefined) | 645 s
18 | COc1ccccc1NC(=O)C1Cc2ccccc2CN1S(=O)(=O)c1ccccc1 (centres undefined) | 1070 s
19 | Cc1ccn2c(NC(=O)c3ccc(C)c(C)c3)c(-c3ccccc3)nc2c1 | 709 s
20 | CCCn1cc(S(=O)(=O)Nc2ccc(F)c(F)c2)c2cccnc21 | 898 s
21 | Cn1c(SCC(=O)Nc2ncn[nH]2)nc2ccsc2c1=O | 583 s
22 | Cc1nc(-c2cccc(NC(=O)c3coc(NC(=O)c4ccco4)n3)c2)cs1 | 688 s
23 | Cc1oc2ccn(Cc3cccc(F)c3)c(=O)c2c1C(=O)NCc1cc(F)cc(F)c1 | 1130 s
24 | O=C(Nc1ccc(Cl)cc1)c1cn(CC(O)c2ccc3c(c2)OCO3)nn1 (centres undefined) | 841 s

Row | Compound | RP-LC retention time
25 | Cn1nccc1-c1cccc(-c2noc(-c3ccccn3)n2)c1 | 818 s
26 | COC(=O)c1ccc(-c2nc3cnccn3c2Nc2cccc(C(F)(F)F)c2)cc1 | 945 s
27 | Cc1noc(C)c1S(=O)(=O)NCCc1noc(-c2ccccc2)n1 | 848 s
28 | COC(=O)c1cc(C)nc2c1c(=O)n(Cc1cccc(OC)c1)c(=O)n2C | 970 s
29 | O=[N+]([O-])c1cccc(/C=C/c2ccccn2)c1 | 747 s
30 | COc1ccc(-c2noc(-c3ccc(N4CCN(c5ccccc5OC)CC4)nc3)n2)cc1 | 1310 s
31 | O=C(NCc1ccc(Br)cc1)c1sc2ncccc2c1-n1cccc1 | 1090 s
32 | Cc1c(-c2noc(-c3ccccc3F)n2)nnn1Cc1ccc(F)cc1 | 1030 s
33 | Cc1oc(-c2ccccc2)nc1CN(c1ccccc1)S(=O)(=O)c1cccs1 | 1150 s
34 | Cc1ccc(-c2nc(-c3ccc4c(c3)ncn4CCN3CCOCC3)no2)cc1F | 689 s
35 | O=C(CCc1c(-c2ccc(Cl)cc2)nc2ccccn12)NCCCc1ccccc1 | 719 s
36 | COC(=O)[C@H](Cc1cccc(C(=N)N)c1)[C@@H](C)NC(=O)c1ccc(-c2cc[n+]([O-])cc2)cc1 | 610 s
37 | O=S(=O)(NCC1Cn2cccc2CN1Cc1ccccc1)c1ccccc1 (centres undefined) | 763 s
38 | O=c1c2c([nH]c3ccc(Cl)cc13)CCN(Cc1ccc(F)cc1)C2 | 620 s
39 | CC(NC(=O)c1ccccc1)c1nc(-c2ccc3c(c2)nnn3C2CCCC2)no1 (centres undefined) | 964 s
40 | CN(CC1CCOCC1)S(=O)(=O)c1ccccc1C(F)(F)F | 861 s
41 | Cc1ccc(NC(=O)Cn2nc3c(Oc4cccc(F)c4)nccn3c2=O)cc1F | 894 s
42 | COc1cc(OC)cc(-c2nc(-c3ccc(NS(=O)(=O)c4cccs4)cc3)no2)c1 | 1120 s
43 | CCOc1ccc(-c2noc(Cn3ccn4nc(-c5ccc(F)cc5)cc4c3=O)n2)cc1OC | 819 s
44 | COc1cc2ncnc(Nc3cccc(Br)c3)c2cc1OC | 771 s
45 | COc1ccc2c(c1)CCc1sc(NC(=O)c3ccc(Br)cc3)nc1-2 | 1190 s
46 | COc1cccc(Cn2cc(C(=O)O)nn2)c1 | 635 s
47 | Cc1[nH]c(-c2ccc(F)cc2)cc1C(=O)N1CC=C(c2ccccc2)CC1 | 1030 s

Next, values leading:

Row | RP-LC retention time | Compound
48 | 628 s | COc1ccc(N2CCN(C(=O)C3(CCO)CC34CCOCC4)CC2)cc1 (centres undefined)
49 | 1430 s | CN1C(=O)c2ccccc2Sc2ccc(NC(=O)N3CCC(C(N)=O)CC3)cc21
50 | 942 s | CCc1cccc(NC(=O)C2CCN(S(=O)(=O)c3ccc4c(c3)CC(C)N4C(C)=O)CC2)c1 (centres undefined)
51 | 1030 s | CCn1ccc2ccc(CCC(=O)N3CCN(c4ccc(F)cc4)CC3)cc21
52 | 817 s | CC1=C(c2ccccc2)S(=O)(=O)N=C1N1CCCN(C(=O)NC2CCCCC2)CC1
53 | 634 s | CCCNC(=O)N1CC(c2nc(C)no2)C2(CCOCC2)C1 (centres undefined)
54 | 819 s | Cc1ccc(NC(=O)C2CCN(S(=O)(=O)c3cn(C(C)C)cn3)CC2)cc1C
55 | 665 s | Cc1ccnc(N2CCC(C(=O)NCCCN3CCCc4ccccc43)CC2)n1
56 | 958 s | COc1ccc(S(=O)(=O)N2CCCC(C(=O)Nc3ccc4c(c3)OCCO4)C2)cc1C (centres undefined)
57 | 612 s | COC(=O)CNC(=O)N1CCCN(c2nc3cc(F)ccc3n3cccc23)CC1
58 | 704 s | CCCNc1cc(N2CCC(CCC(=O)NCc3cc(F)cc(F)c3)CC2)ncn1
59 | 837 s | O=C(c1cccc(Br)c1)N1CCN(c2cc(-c3cccs3)[nH]n2)CC1
60 | 1100 s | O=C(NC1CCCCCCC1)C1CCN(S(=O)(=O)c2cc(-c3noc(C4CC4)n3)cs2)CC1
61 | 622 s | Cc1cccc(-n2ncc3c(N4CCN(CCO)CC4)ncnc32)c1
62 | 646 s | CC(C)(C)NC(=O)N1CC(n2cc(C(=O)N3CCOCC3)nn2)C1
63 | 908 s | O=C(CN1CCN(Cc2ccc(F)cc2Cl)C1=O)N1CCN(c2ccc(F)cc2)CC1
64 | 603 s | CCn1cc(CN2CCC(C(=O)NCc3ccc(N(C)C)cc3)CC2)c2cc(OC)ccc21
65 | 661 s | COCCN1C(=O)c2ccccc2C(C(=O)N2CCN(Cc3ccccc3)CC2)C1c1cccs1 (centres undefined)
66 | 626 s | Cc1cnc(CCC2CCCN2C(=O)c2ccc(Cn3cncn3)o2)n1C(C)C (centres undefined)
67 | 805 s | O=C(Cc1cccs1)Nc1nnc(SCC(=O)N2CCCc3ccccc32)s1
68 | 837 s | O=C(C1CC(=O)N(c2n[nH]c3cccc(F)c23)C1)N1CCN(c2cccc(Cl)c2)CC1 (centres undefined)

Row | RP-LC retention time | Compound
69 | 914 s | CC(C)Cn1nc2c(S(=O)(=O)N3CCN(c4ccc(F)cc4)CC3)cccn2c1=O
70 | 806 s | COc1cccc(CNC(=O)C2(C)CCN(C(=O)Nc3ccccc3C(F)(F)F)CC2)c1
71 | 1060 s | O=C(CN1CCCCC1c1nc(-c2cccs2)no1)NCc1ccc(Cl)cc1 (centres undefined)
72 | 982 s | CCOC(=O)c1cc(S(=O)(=O)N2CCCC2C(=O)Nc2cc(F)ccc2F)cn1C (centres undefined)
73 | 758 s | O=C(NCCc1c[nH]c2ccccc12)C1CC(=O)N(CCc2ccccc2)C1 (centres undefined)
74 | 772 s | O=C(NCCc1ccc(Cl)cc1)C(=O)Nc1ccon1
75 | 782 s | CN1C(=O)c2cc(C(=O)N3CCCCC3)nn2CC1(C)C(=O)NC1CCCCCC1 (centres undefined)
76 | 593 s | CCC1CCCCN1CCNC(=O)CCc1cc2cc(OC)ccc2[nH]c1=O (centres undefined)
77 | 1010 s | CCn1nccc1C(=O)Nc1ccc(-c2nnc3n2CCCC3)cc1
78 | 547 s | CCN1CCN(c2ncc3c(n2)CCN(Cc2ccc(OC)c(OC)c2OC)C3)CC1
79 | 689 s | O=C(C1CCCN(c2ncc(-c3cccc(F)c3)cn2)C1)N1CCC(N2CCCCC2)CC1 (centres undefined)
80 | 668 s | CCn1c(=O)c(SCC(=O)NCC2CCN(Cc3ccc(C)cc3)C2)nc2ccccc21 (centres undefined)
81 | 782 s | CCc1ccccc1NC(=O)N1CCC(c2nc(C(=O)N3CCCC3)c(C)o2)CC1
82 | 846 s | O=S(=O)(c1ccc2c(c1)CCC2)N1CCC(Cc2nncn2-c2ccccc2)C1 (centres undefined)
83 | 551 s | Cc1ccc(-n2cc(C3=CCN(CC(=O)NC4CCN(Cc5ccccc5)CC4)CC3)cn2)cc1
84 | 598 s | CCCNC(=O)C(=O)NCC(c1ccc2c(c1)CCCN2C)N1CCCCC1 (centres undefined)
85 | 928 s | Cc1nc(N2CCN(C(=O)CCCc3ccccc3)CC2)cc(-n2cccn2)n1
86 | 861 s | CCC1Oc2ccc(S(=O)(=O)N3CCC(C(=O)Nc4ccc(OC)cc4)CC3)cc2NC1=O (centres undefined)
87 | 822 s | CCN1c2cc(C(=O)NCc3cccs3)ccc2C(=O)N2CCCCC21 (centres undefined)
88 | 690 s | CCc1c(C(=O)O)nnn1-c1ccccc1F
89 | 850 s | O=C(Cn1cccc(S(=O)(=O)N2CCCCCC2)c1=O)N1CCCc2ccccc21
